From the supplement of paper PMC10307832

Experiments:
Test in all cases: relative viability (nuclei count vs DMSO), 5 days (fraction); higher = more cells survive
COR-L23 = system: COR-L23
Summary of the method: (§1)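 Five library-drug doses in √10 steps were combined with a fixed anchor-drug dose, or a single drug was given alone, by pin tool to lung cancer cell lines in 1536-well plates the day after seeding. Nuclei were stained and counted after 5 days. Relative viability is the nuclei count in treated wells over that in vehicle wells, taken as the median of duplicate plates.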

NCI-H1793 = system: NCI-H1793
Summary of the method: as §1

EMC-BAC-2 = system: EMC-BAC-2
Summary of the method: as §1

NCI-H23 = system: NCI-H23
Summary of the method: as §1

NCI-H358 = system: NCI-H358
Summary of the method: as §1

NCI-H1437 = system: NCI-H1437
Summary of the method: as §1

NCI-H2342 = system: NCI-H2342
Summary of the method: as §1

NCI-H1915 = system: NCI-H1915
Summary of the method: as §1

SK-MES-1 = system: SK-MES-1
Summary of the method: as §1

NCI-H2023 = system: NCI-H2023
Summary of the method: as §1

NCI-H2009 = system: NCI-H2009
Summary of the method: as §1

NCI-H650 = system: NCI-H650
Summary of the method: as §1

NCI-H1792 = system: NCI-H1792
Summary of the method: as §1

HCC-366 = system: HCC-366
Summary of the method: as §1

201T = system: 201T
Summary of the method: as §1

COR-L 105 = system: COR-L 105
Summary of the method: as §1

LC-2-ad = system: LC-2-ad
Summary of the method: as §1

HCC-15 = system: HCC-15
Summary of the method: as §1

PC-14 = system: PC-14
Summary of the method: as §1

NCI-H1755 = system: NCI-H1755
Summary of the method: as §1

NCI-H1395 = system: NCI-H1395
Summary of the method: as §1

NCI-H2347 = system: NCI-H2347
Summary of the method: as §1

Cc1cn(-c2cc(NC(=O)c3ccc(C)c(Nc4nccc(-c5cccnc5)n4)c3)cc(C(F)(F)F)c2)cn1 [Nilotinib] + Cc1nc(Nc2ncc(C(=O)Nc3c(C)cccc3Cl)s2)cc(N2CCN(CCO)CC2)n1 [Dasatinib] (partner 0.075 µM)
relative viability (COR-L23; first compound 0.001 µM): 0.482 | relative viability (COR-L23; first compound 0.003162 µM): 0.501 | relative viability (COR-L23; first compound 0.01 µM): 0.511 | relative viability (COR-L23; first compound 0.03162 µM): 0.265 | relative viability (COR-L23; first compound 0.1 µM): 0.407 | relative viability (NCI-H1793; first compound 0.001 µM): 0.303 | relative viability (NCI-H1793; first compound 0.003162 µM): 0.407 | relative viability (NCI-H1793; first compound 0.01 µM): 0.459 | relative viability (NCI-H1793; first compound 0.03162 µM): 0.283 | relative viability (NCI-H1793; first compound 0.1 µM): 0.194 | relative viability (EMC-BAC-2; first compound 0.001 µM): 0.308 | relative viability (EMC-BAC-2; first compound 0.003162 µM): 0.308 | relative viability (EMC-BAC-2; first compound 0.01 µM): 0.325 | relative viability (EMC-BAC-2; first compound 0.03162 µM): 0.27 | relative viability (EMC-BAC-2; first compound 0.1 µM): 0.296 | relative viability (NCI-H23; first compound 0.001 µM): 0.691 | relative viability (NCI-H23; first compound 0.003162 µM): 0.681 | relative viability (NCI-H23; first compound 0.01 µM): 0.823 | relative viability (NCI-H23; first compound 0.03162 µM): 0.309 | relative viability (NCI-H23; first compound 0.1 µM): 0.508 | relative viability (NCI-H358; first compound 0.001 µM): 0.177 | relative viability (NCI-H358; first compound 0.003162 µM): 0.153 | relative viability (NCI-H358; first compound 0.01 µM): 0.18 | relative viability (NCI-H358; first compound 0.03162 µM): 0.178 | relative viability (NCI-H358; first compound 0.1 µM): 0.157 | relative viability (NCI-H1437; first compound 0.001 µM): 0.366 | relative viability (NCI-H1437; first compound 0.003162 µM): 0.327 | relative viability (NCI-H1437; first compound 0.01 µM): 0.373 | relative viability (NCI-H1437; first compound 0.03162 µM): 0.296 | relative viability (NCI-H1437; first compound 0.1 µM): 0.164 | relative viability (NCI-H2342; first compound 0.001 µM): 0.277 | relative viability (NCI-H2342; first compound 0.003162 µM): 0.303 | relative viability (NCI-H2342; first compound 0.01 µM): 0.302 | relative viability (NCI-H2342; first compound 0.03162 µM): 0.273 | relative viability (NCI-H2342; first compound 0.1 µM): 0.298 | relative viability (NCI-H1915; first compound 0.001 µM): 0.324 | relative viability (NCI-H1915; first compound 0.003162 µM): 0.314 | relative viability (NCI-H1915; first compound 0.01 µM): 0.354 | relative viability (NCI-H1915; first compound 0.03162 µM): 0.27 | relative viability (NCI-H1915; first compound 0.1 µM): 0.141 | relative viability (SK-MES-1; first compound 0.001 µM): 0.306 | relative viability (SK-MES-1; first compound 0.003162 µM): 0.334 | relative viability (SK-MES-1; first compound 0.01 µM): 0.308 | relative viability (SK-MES-1; first compound 0.03162 µM): 0.29 | relative viability (SK-MES-1; first compound 0.1 µM): 0.207 | relative viability (NCI-H2023; first compound 0.001 µM): 0.471 | relative viability (NCI-H2023; first compound 0.003162 µM): 0.569 | relative viability (NCI-H2023; first compound 0.01 µM): 0.828 | relative viability (NCI-H2023; first compound 0.03162 µM): 0.418 | relative viability (NCI-H2023; first compound 0.1 µM): 0.405 | relative viability (NCI-H2009; first compound 0.001 µM): 0.278 | relative viability (NCI-H2009; first compound 0.003162 µM): 0.258 | relative viability (NCI-H2009; first compound 0.01 µM): 0.261 | relative viability (NCI-H2009; first compound 0.03162 µM): 0.212 | relative viability (NCI-H2009; first compound 0.1 µM): 0.199 | relative viability (NCI-H650; first compound 0.001 µM): 0.462 | relative viability (NCI-H650; first compound 0.003162 µM): 0.479 | relative viability (NCI-H650; first compound 0.01 µM): 0.49 | relative viability (NCI-H650; first compound 0.03162 µM): 0.408 | relative viability (NCI-H650; first compound 0.1 µM): 0.379 | relative viability (NCI-H1792; first compound 0.001 µM): 0.614 | relative viability (NCI-H1792; first compound 0.003162 µM): 0.591 | relative viability (NCI-H1792; first compound 0.01 µM): 0.785 | relative viability (NCI-H1792; first compound 0.1 µM): 1.36 | relative viability (HCC-366; first compound 0.001 µM): 0.614 | relative viability (HCC-366; first compound 0.003162 µM): 0.938 | relative viability (HCC-366; first compound 0.01 µM): 0.958 | relative viability (HCC-366; first compound 0.03162 µM): 0.4 | relative viability (HCC-366; first compound 0.1 µM): 0.181 | relative viability (201T; first compound 0.01 µM): 0.404 | relative viability (201T; first compound 0.03162 µM): 0.451 | relative viability (201T; first compound 0.1 µM): 0.295 | relative viability (COR-L 105; first compound 0.001 µM): 0.374 | relative viability (COR-L 105; first compound 0.003162 µM): 0.357 | relative viability (COR-L 105; first compound 0.01 µM): 0.297 | relative viability (COR-L 105; first compound 0.03162 µM): 0.345 | relative viability (COR-L 105; first compound 0.1 µM): 0.222 | relative viability (LC-2-ad; first compound 0.001 µM): 0.512 | relative viability (LC-2-ad; first compound 0.003162 µM): 0.701 | relative viability (LC-2-ad; first compound 0.01 µM): 0.574 | relative viability (LC-2-ad; first compound 0.03162 µM): 0.43 | relative viability (LC-2-ad; first compound 0.1 µM): 0.387 | relative viability (HCC-15; first compound 0.001 µM): 0.607 | relative viability (HCC-15; first compound 0.003162 µM): 0.689 | relative viability (HCC-15; first compound 0.01 µM): 0.665 | relative viability (HCC-15; first compound 0.03162 µM): 0.456 | relative viability (HCC-15; first compound 0.1 µM): 0.433 | relative viability (PC-14; first compound 0.001 µM): 0.226 | relative viability (PC-14; first compound 0.003162 µM): 0.254 | relative viability (PC-14; first compound 0.01 µM): 0.198 | relative viability (PC-14; first compound 0.03162 µM): 0.16 | relative viability (PC-14; first compound 0.1 µM): 0.0622 | relative viability (NCI-H1755; first compound 0.001 µM): 0.376 | relative viability (NCI-H1755; first compound 0.003162 µM): 0.381 | relative viability (NCI-H1755; first compound 0.01 µM): 0.404 | relative viability (NCI-H1755; first compound 0.03162 µM): 0.276 | relative viability (NCI-H1755; first compound 0.1 µM): 0.184 | relative viability (NCI-H1395; first compound 0.001 µM): 0.445 | relative viability (NCI-H1395; first compound 0.003162 µM): 0.357 | relative viability (NCI-H1395; first compound 0.01 µM): 0.428 | relative viability (NCI-H1395; first compound 0.03162 µM): 0.357 | relative viability (NCI-H1395; first compound 0.1 µM): 0.333 | relative viability (NCI-H2347; first compound 0.001 µM): 0.302 | relative viability (NCI-H2347; first compound 0.003162 µM): 0.344 | relative viability (NCI-H2347; first compound 0.01 µM): 0.344 | relative viability (NCI-H2347; first compound 0.03162 µM): 0.267 | relative viability (NCI-H2347; first compound 0.1 µM): 0.264
